# From patent publication US20140288040A1, “SUBSTITUTED BENZYLAMINE COMPOUNDS, THEIR USE IN MEDICINE, AND IN PARTICULAR THE TREATMENT OF HEPATITIS C VIRUS (HCV) INFECTION” (ASTEX THERAPEUTICS LIMITED, priority 2011, published 2014)
# Counter-ions that a name gives are not always drawn. Like-named read-outs stand apart in the source and are kept apart here.
# Legend:
# [1] = molecular target: T1, HCV NS3 protease (full length NS34a) (Hepatitis C virus genotype 1b, UniProt P26663); test: HCV NS3 protease assay (FRET, full length NS34a); format: biochemical
# T1 construct: The protease activity of the full length NS34a was measured using a FRET-based assay; made in house
# How it was run: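 Full-length NS34a incubated with compound and an NS4AB cleavage-site FRET peptide (QXL520 quencher, 5-FAMsp fluorophore) in 50 mM Tris pH8, 20 mM DTT, 1% CHAPS, 10% glycerol, 5% DMSO. Fluorescence followed for 30 minutes at room temperature; IC50 from initial rates of replicate progress curves.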
# [2] = system: HCV subgenomic replicon in Huh-7 cells; test: Replicon assay, EC50 luciferase readout; format: cell-based, hepatitis C virus (HCV); settings: Hepatitis C virus, Huh-7, 72 h, Huh-7 replicon cells, 72 h; single value, or second value of a pair x:y; read-out: Activity EC50 (μM) (EC50 luciferase readout)
# Description: The activities of compounds of the invention against HCV in a cellular environment were analysed using a replicon assay as described below.
# Thus, Huh-7 cells persistently infected with an HCV-RNA construct (Bartenschlager, R. Hepatitis C replicons: potential role for drug development. Nature Rev. Drug Discov. 1, 911-916 (2002)) comprising: 5′ and 3′ non-translated regions (NTR); the non-structural genes NS3 to NS5b; as well as the G418 drug resistance gene, neomycin, (for selection of cells carrying HCV replicon RNA) fused to the firefly Luciferase reporter gene (pFK13889luc-ubi-neoNS3-3′ET), were used to determine the cell based antiviral activity of compounds using luciferase activity as an indirect readout of HCV RNA load. In this assay […] huh-7 cells persistently infected with the HCV subgenomic replicon construct above were platedwell in a 96 well tissue culture plate. The cells were allowed to attach overnight in DMEM medium supplemented with 10% FBS 1% NEAA, and 250 μgml gentamicin. The following day the medium was replaced with 200 μlwell of fresh medium as described above lacking gentamicin. […] Plates were then incubated at 37° C. in an atmosphere of 5% CO2 and air for 72 h. […] The plate was then read at 535 nm (excitation) and 590 nm (emission) on a SpectraMax Gemini reader (Molecular Devices) to determine the number of viable cells by measuring the conversion of rezasurin (Alamar blue) to resorufin in response to mitochondrial activity. In order to determine the antiviral effect of these compounds EC50 values were determined by measuring the luciferase activity of the cells. Alamar blue solution was removed from the wells and replaced with 100 μlwell of medium along with 100 μlwell of Bright-Glo reagent and incubated at room temperature for 5 minutes before transferring 100 μlwell to a white bottom 96 well plate to read in a luminometer as described in the Bright-Glo Luciferase Assay System protocol (promega).
# [3] = protease activity of full length NS34a, FRET peptide substrate, read-out: Activity IC50
# [4] = IC50 values of 10-150 μM against the protease activity of the full length NS34a, or at least 40% inhibition of protease activity at a concentration of 100 μM
# T1 sequence (P26663 1658-1711): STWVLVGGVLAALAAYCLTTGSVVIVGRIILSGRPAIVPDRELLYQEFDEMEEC
# T1 sequence (P26663 1027-1657): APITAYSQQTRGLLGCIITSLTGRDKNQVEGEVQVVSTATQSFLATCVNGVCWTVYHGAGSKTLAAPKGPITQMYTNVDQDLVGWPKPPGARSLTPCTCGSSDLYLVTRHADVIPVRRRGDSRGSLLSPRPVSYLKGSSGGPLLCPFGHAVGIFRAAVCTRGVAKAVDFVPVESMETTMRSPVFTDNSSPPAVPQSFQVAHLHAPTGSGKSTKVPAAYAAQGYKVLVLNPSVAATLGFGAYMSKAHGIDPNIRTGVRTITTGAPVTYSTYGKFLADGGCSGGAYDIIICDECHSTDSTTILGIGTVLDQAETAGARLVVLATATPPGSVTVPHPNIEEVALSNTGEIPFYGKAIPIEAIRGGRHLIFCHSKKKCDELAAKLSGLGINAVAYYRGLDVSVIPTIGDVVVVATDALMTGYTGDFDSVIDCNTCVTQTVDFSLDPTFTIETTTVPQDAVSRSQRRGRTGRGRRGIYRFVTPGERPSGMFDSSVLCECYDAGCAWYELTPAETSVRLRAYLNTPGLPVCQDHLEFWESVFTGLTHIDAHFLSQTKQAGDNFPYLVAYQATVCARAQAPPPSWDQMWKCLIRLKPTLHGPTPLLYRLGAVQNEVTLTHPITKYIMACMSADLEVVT
SMILES,"IC50 [1, 3] [µM]",EC50 [2] [µM],inhibition at 0.01 µM ([1]; read-out: Activity % inhibition @ 0.01 μM) [%],"IC50 [1, 4] [µM]"
"CC[C@@H](Nc1ncc(CN)cn1)c1ccc(Cl)c(Oc2ccccc2)c1F [Example 8, (5-Aminomethyl-pyrimidin-2-yl)-[(R)-1-(4-chloro-2-fluoro-3-phenoxy-phenyl)-propyl]-amine hydrochloride]",0.33,10,,
"CC[C@@H](N[C@@H](C)C(=O)NCCN)c1ccc(Cl)c(Oc2ccccc2)c1F [Example 9, (S)—N-(2-Amino-ethyl)-2-[(R)-1-(4-chloro-2-fluoro-3-phenoxy-phenyl)-propylamino]-propionamide dihydrochloride]",,10,40.5,
CC[C@@H](N)c1ccc(F)c(Oc2ccccc2)c1F [Example 11],2.2,0.8,,
CCCC(N)c1ccc(F)c(Oc2ccccc2)c1F (centres unmarked) [Example 12],1.2,10,,
"NC(C1=CCNCC1)c1ccc(F)c(Oc2ccccc2)c1F (centres unmarked) [Example 13, C-(2,4-Difluoro-3-phenoxy-phenyl)-C-(1,2,3,6-tetrahydro-pyridin-4-yl)-methylamine. dihydrochloride]",3.1,2,,
"NC(c1ccc(F)c(Oc2ccccc2)c1F)C1CCNCC1 (centres unmarked) [Example 14, C-(2,4-Difluoro-3-phenoxy-phenyl)-C-piperidin-4-yl-methylamine. dihydrochloride]",1.7,2,,
"CNC(CC(C)C)c1ccc(F)c(Oc2ccccc2)c1F (centres unmarked) [Example 16, [1-(2,4-Difluoro-3-phenoxy-phenyl)-3-methyl-butyl]-methyl-amine. hydrochloride]",4,0.58,,
CCC(NC1CCCNC1)c1ccc(F)c(Oc2ccccc2)c1F (centres unmarked) [Example 17],,2.8,,10 to 150
"CC(C)NCC(N)c1ccc(F)c(Oc2ccccc2)c1F (centres unmarked) [Example 19, 1-(2,4-Difluoro-3-phenoxy-phenyl)-N*2*-isopropyl-ethane-1,2-diamine. dihydrochloride]",9.8,10,,
CCC(NCc1cc[nH]n1)c1ccc(F)c(Oc2ccccc2)c1F (centres unmarked) [Example 21],,> 30,,10 to 150
CCC(NCC1CC1)c1ccc(F)c(Oc2ccccc2)c1F (centres unmarked) [Example 22],3.2,6.6,,
CCC(NCc1[nH]cnc1C)c1ccc(F)c(Oc2ccccc2)c1F (centres unmarked) [Example 24],,18,,10 to 150
CCC(NCCC1CCCNC1)c1ccc(F)c(Oc2ccccc2)c1F (centres unmarked) [Example 27],1,0.26,,
CCC(NCC1CCNCC1)c1ccc(F)c(Oc2ccccc2)c1F (centres unmarked) [Example 29],4.4,0.47,,
CCC(NC(C)CO)c1ccc(F)c(Oc2ccccc2)c1F (centres unmarked) [Example 32],0.88,8,,
CCC(NC(C)C)c1ccc(F)c(Oc2ccccc2)c1F (centres unmarked) [Example 34],4,1.2,,
CCC(NC1CCC1)c1ccc(F)c(Oc2ccccc2)c1F (centres unmarked) [Example 44],4.7,9.9,,
"CCC(NCCO)c1ccc(F)c(Oc2ccccc2)c1F (centres unmarked) [Example 45, 2-[1-(2,4-Difluoro-3-phenoxy-phenyl)-propylamino]-ethanol. hydrochloride]",1.7,9.1,,
CCC(NC(C)CC(=O)NC)c1ccc(F)c(Oc2ccccc2)c1F (centres unmarked) [Example 49],3.2,> 30,,
"NC(C1=NCCN1)c1ccc(F)c(Oc2ccccc2)c1F (centres unmarked) [Example 50, C-(2,4-Difluoro-3-phenoxy-phenyl)-C-(4,5-dihydro-1H-imidazol-2-yl)-methylamine.dihydrobromide]",,23,,10 to 150

SMILES,"IC50 [1, 3] [µM]",EC50 [2] [µM],inhibition at 0.01 µM ([1]; read-out: Activity % inhibition @ 0.01 μM) [%],"IC50 [1, 4] [µM]"
CC[C@H](N)c1ccc(F)c(Oc2ccccc2)c1F [Example 52],1.8,9.4,,
"CCC(NCCCO)c1ccc(F)c(Oc2ccccc2)c1F (centres unmarked) [Example 56, 3-[1-(2,4-Difluoro-3-phenoxy-phenyl)-propylamino]-propan-1-ol.hydrochloride]",1.1,11,,
CC[C@@H](N[C@@H](C)CO)c1ccc(F)c(Oc2ccccc2)c1F [Example 57],,29,,10 to 150
CC[C@@H](N[C@H](C)CO)c1ccc(F)c(Oc2ccccc2)c1F [Example 58],1,27,,
"N[C@H](c1ccc(F)c(Oc2ccccc2)c1F)[C@@H]1CCCNC1 [Example 59B, C-(2,4-Difluoro-3-phenoxy-phenyl)-C-piperidin-3-yl-methylamine. dihydrochloride]",2.1,3,,
"N[C@H](c1ccc(F)c(Oc2ccccc2)c1F)[C@H]1CCCNC1 [Example 60, C-(2,4-Difluoro-3-phenoxy-phenyl)-C-piperidin-3-yl-methylamine.dihydrochloride]",,3,,10 to 150
CC[C@H](N[C@@H](C)CO)c1ccc(F)c(Oc2ccccc2)c1F [Example 64],0.43,18,,
CC[C@H](N[C@H](C)CO)c1ccc(F)c(Oc2ccccc2)c1F [Example 65],2.1,12,,
CCC(NC(C)CC(N)=O)c1ccc(F)c(Oc2ccccc2)c1F (centres unmarked) [Example 66],0.75,> 30,,
CCC(NC(C)c1c[nH]cn1)c1ccc(F)c(Oc2ccccc2)c1F (centres unmarked) [Example 67],3.4,> 30,,
CC[C@H](N[C@@H](C)CC(N)=O)c1ccc(F)c(Oc2ccccc2)c1F [Example 70],0.73,27,,
CCC(NCCC(N)=O)c1ccc(F)c(Oc2ccccc2)c1F (centres unmarked) [Example 71],0.95,> 30,,
"NC(CC1CCNCC1)c1ccc(F)c(Oc2ccccc2)c1F (centres unmarked) [Example 72B, 1-(2,4-Difluoro-3-phenoxy-phenyl)-2-piperidin-4-yl-ethylamine. dihydrochloride]",0.7,0.26,,
"NC(c1ccc(=O)[nH]c1)c1ccc(F)c(Oc2ccccc2)c1F (centres unmarked) [Example 73, 5-[Amino-(2,4-difluoro-3-phenoxy-phenyl)-methyl]-1H-pyridin-2-one]",,> 30,,10 to 150
N[C@@H](c1ccc(F)c(Oc2ccccc2)c1F)[C@H]1CCC(=O)NC1 [Example 74A],,> 30,,10 to 150
CC[C@H](N)c1ccc(Cl)c(Oc2ccccc2)c1F [Example 77],0.59,12,,
CC[C@@H](N)c1ccc(Cl)c(Oc2ccccc2)c1F [Example 78],1.2,9.6,,
"CC[C@H](N[C@@H](C)CC(N)=O)c1ccc(Cl)c(Oc2ccccc2)c1F [Example 79, (S)-3-[(S)-1-(4-Chloro-2-fluoro-3-phenoxy-phenyl)-propylamino]-butyramide.hydrochloride]",0.31,> 10,,
"CC[C@H](N[C@H](C)CC(N)=O)c1ccc(Cl)c(Oc2ccccc2)c1F [Example 80, (R)-3-[(S)-1-(4-Chloro-2-fluoro-3-phenoxy-phenyl)-propylamino]-butyramide.hydrochloride]",,> 10,,10 to 150
CC[C@H](NC(C)CO)c1ccc(Cl)c(Oc2ccccc2)c1F (some centres unmarked) [Example 81],0.39,11,,
